Patent US7060699B2, “Aryl and heteroaryl diazabicycloalkanes, their preparation and use” (priority 2000, dated 2006)
Read-outs that look alike come from different tables or passages of the source.

Tests used:
[1] = biological target: T1, serotonin transporter (Rattus norvegicus, UniProt P31652); assay: In vitro inhibition of 3H-5-hydroxytryptamine (3H-5-HT, serotonin) uptake in cortical synaptosomes; assay type: biochemical
T1 construct: Cerebral cortices from male Wistar rats (150–200 g) are homogenized; from tissue; host or cells: rat cerebral cortex synaptosomes (P2 pellet)
Description: In Vitro Inhibition of ^3H-5-hydroxytryptamine (^3H-5-HT, Serotonin) Uptake in Cortical Synaptosomes
Serotonin transporters/uptake sites on nerve terminals presumably function to terminate neuronal signaling by removing serotonin from the synaptic cleft. The activity of the serotonin transporter integral protein can be measured in vitro by synaptosomal uptake of ^3H-5-hydroxytryptamine.
Preparations are performed at 0–4° C. unless otherwise indicated. Cerebral cortices from male Wistar rats (150–200 g) are homogenized for 5–10 sec in 100 volumes of ice-cold 0.32M sucrose containing 1 mM pargyline using a motor driven teflon pestle in a glass homogenizing vessel. Monoamine oxidase activity will be inhibited in the presence of pargyline. The homogenate is centrifuged at 1000×g for 10 min. The resulting supernatant is then centrifuged at 27,000×g for 50 min and the supernatant is discarded.
Aliquots of 4.0 ml tissue suspension are added to 100 µl of test solution and 100 μl of ^3H-5-HT (1 nM, final concentration), mixed and incubated for 30 min at 37° C. Non-specific uptake is determined using citalopram (1 μM, final concentration). After incubation the samples are poured directly onto Whatman GF/C glass fibre filters under suction. The filters are then washed three times with 5 ml of ice-cold 0.9% (w/v) NaCl solution. The amount of radioactivity on the filters is determined by conventional liquid scintillation counting. Specific uptake is calculated as the difference between total uptake and non-specific uptake.
where C0 is specific binding in control assays and Cx is the specific binding in the test assay (the calculations assume normal mass-action kinetics).

[2] = biological target: nAChR comprised of α4 and β2 subunits (Rattus norvegicus, UniProt P09483+P12390); assay: In vitro inhibition of 3H-cytisine binding
[3] = biological target: nAChR formed by the α7 subunit isoform (Rattus norvegicus, UniProt Q05941); assay: biochemical; assay type: binding
[4] = cerebral cortex homogenate from male Wistar rats, 3H-cytisine 1 nM, 90 min at 2° C., read-out: 3H-cytisine binding IC50

T1 sequence (P31652 whole entry): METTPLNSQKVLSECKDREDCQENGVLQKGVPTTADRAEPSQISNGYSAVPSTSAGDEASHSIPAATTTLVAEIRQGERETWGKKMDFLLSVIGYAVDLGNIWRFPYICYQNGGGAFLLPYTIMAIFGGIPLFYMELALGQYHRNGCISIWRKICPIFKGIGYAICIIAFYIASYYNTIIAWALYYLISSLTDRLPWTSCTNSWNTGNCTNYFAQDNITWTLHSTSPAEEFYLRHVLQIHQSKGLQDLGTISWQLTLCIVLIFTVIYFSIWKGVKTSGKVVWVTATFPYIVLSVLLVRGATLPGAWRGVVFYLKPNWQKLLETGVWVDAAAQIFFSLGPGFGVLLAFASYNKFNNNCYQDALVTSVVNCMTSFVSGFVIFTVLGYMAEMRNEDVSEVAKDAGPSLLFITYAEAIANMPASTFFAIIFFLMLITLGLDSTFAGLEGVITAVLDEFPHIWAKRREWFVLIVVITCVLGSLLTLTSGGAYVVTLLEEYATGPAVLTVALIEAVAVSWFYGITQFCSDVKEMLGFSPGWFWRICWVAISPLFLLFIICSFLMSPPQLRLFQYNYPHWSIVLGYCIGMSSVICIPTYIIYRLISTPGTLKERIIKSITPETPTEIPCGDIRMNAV
Sequence of nAChR formed by the α7 subunit isoform (Q05941 23-502): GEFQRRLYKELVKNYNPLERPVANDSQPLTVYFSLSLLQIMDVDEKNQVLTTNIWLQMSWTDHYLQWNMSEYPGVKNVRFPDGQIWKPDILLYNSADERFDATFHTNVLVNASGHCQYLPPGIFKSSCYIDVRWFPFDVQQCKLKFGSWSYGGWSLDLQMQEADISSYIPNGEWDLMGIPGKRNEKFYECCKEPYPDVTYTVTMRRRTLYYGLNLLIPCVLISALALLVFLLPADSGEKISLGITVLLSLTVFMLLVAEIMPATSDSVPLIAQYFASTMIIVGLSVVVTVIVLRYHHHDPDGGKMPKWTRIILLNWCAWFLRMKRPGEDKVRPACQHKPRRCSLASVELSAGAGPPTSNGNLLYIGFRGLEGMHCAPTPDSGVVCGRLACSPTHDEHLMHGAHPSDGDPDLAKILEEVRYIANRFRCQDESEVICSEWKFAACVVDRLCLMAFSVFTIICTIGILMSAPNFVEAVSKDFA
Sequence of nAChR comprised of α4 and β2 subunits (P09483 31-630): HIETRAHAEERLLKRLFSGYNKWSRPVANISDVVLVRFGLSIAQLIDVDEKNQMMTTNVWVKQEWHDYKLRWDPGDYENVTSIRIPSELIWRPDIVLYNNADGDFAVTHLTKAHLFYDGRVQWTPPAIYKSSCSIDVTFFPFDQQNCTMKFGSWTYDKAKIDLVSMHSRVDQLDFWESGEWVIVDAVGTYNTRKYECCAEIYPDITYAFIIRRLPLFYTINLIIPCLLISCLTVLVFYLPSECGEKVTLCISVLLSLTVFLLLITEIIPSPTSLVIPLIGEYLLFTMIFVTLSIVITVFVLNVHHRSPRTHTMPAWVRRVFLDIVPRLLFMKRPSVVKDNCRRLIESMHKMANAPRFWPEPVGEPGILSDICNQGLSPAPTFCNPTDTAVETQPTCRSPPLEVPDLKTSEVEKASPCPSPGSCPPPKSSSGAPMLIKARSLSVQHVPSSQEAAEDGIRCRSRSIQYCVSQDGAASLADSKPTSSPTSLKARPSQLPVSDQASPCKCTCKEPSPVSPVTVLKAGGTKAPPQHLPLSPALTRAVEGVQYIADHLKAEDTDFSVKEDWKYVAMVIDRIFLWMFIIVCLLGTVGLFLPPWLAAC
Sequence of nAChR comprised of α4 and β2 subunits (P12390 25-500): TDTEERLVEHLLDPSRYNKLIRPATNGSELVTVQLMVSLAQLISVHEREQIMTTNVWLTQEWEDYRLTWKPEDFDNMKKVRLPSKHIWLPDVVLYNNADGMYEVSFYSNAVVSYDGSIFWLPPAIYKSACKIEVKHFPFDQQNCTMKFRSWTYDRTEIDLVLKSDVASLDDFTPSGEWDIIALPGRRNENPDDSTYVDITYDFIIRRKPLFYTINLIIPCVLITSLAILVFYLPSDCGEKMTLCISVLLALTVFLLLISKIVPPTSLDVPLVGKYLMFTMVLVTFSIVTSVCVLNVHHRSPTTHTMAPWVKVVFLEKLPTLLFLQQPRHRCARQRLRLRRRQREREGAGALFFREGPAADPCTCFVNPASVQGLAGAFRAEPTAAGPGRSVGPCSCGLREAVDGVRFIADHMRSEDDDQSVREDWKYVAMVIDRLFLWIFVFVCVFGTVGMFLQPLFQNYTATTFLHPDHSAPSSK

| Structure (SMILES) | IC50 [1] [nM] | IC50 [2] [nM] | IC50 [3] [nM] | IC50 [2, 4] [nM] |
| --- | --- | --- | --- | --- |
| CN1C2CCC1CN(c1ccc3ccccc3c1)CC2 (racemic) [Compound 1, (±) 3-(2-Naphthalyl)-9-methyl-3,9-diazabicyclo-[4.2.1]-nonane] | 40 |  |  |  |
| CN1C2CCC1CN(c1ccc3ccccc3n1)CC2 (racemic) [Compound 2, (±) 3-(2-Quinolinyl)-9-methyl-3,9-diazabicyclo-[4.2.1]-nonane] | 13 |  |  |  |
| CN1C2CCC1CN(c1ccc(Cl)c(Cl)c1)CC2 (racemic) [Compound A1, (±) 3-(3,4-Dichlorophenyl)-9-methyl-3,9-diazabicyclo-[4.2.1]-nonane] | 32 |  |  |  |
| c1ccc2ncc(N3CCC4CCC(C3)N4)cc2c1 (racemic) [Compound B5, (±) 3-(3-Quinolinyl)-9-H-3,9-diazabicyclo-[4.2.1]-nonane] | 49 |  |  |  |
| CN1C2CCC1CN(c1cncc(OCCOc3cncc(N4CCC5CCC(C4)N5C)c3)c1)CC2 (racemic) [Compound B7, (±) O,O′-bis-[5-(9-Methyl-3,9-diazabicyclo-[4.2.1]-nonan-3-yl)-3-pyridyl]-ethyleneglycol] |  | 13 | > 10000 |  |
| CN1C2CCC1CN(c1ccc(-c3ccccc3)nn1)CC2 (racemic) [Compound C2, (±) 3-(6-Phenyl-3-pyridazinyl)-9-methyl-3,9-diazabicyclo-[4.2.1]-nonane] |  |  | 410 | > 10000 |
| CN1C2CCC1CN(c1ccc3cc([N+](=O)[O-])ccc3n1)CC2 (racemic) [Compound C3, (±) 3-(6-Nitro-2-quinolinyl)-9-methyl-3,9-diazabicyclo-[4.2.1]-nonane] | 3.7 |  |  |  |
| Cc1ccccc1-c1ccc(N2CCC3CCC(C2)N3C)cn1 (racemic) [Compound F1, (±) 3-[6-(2-Toluyl)-3-pyridyl]-9-methyl-3,9-diazabicyclo-[4.2.1]-nonane] |  | 99 | 5500 |  |
| CN1C2CCC1CN(c1ccc(-c3ccsc3)nc1)CC2 (racemic) [Compound F5, (±) 3-[6-(3-Thienyl)-3-pyridyl]-9-methyl-3,9-diazabicyclo-[4.2.1]-nonane] |  |  | 280 | 1500 |
| CN1CCC2CCC(C1)N2c1ccc(-c2ccccc2)nn1 (racemic) [Compound F10, (±) 3-Methyl-9-(6-phenyl-3-pyridazinyl)-3,9-diazabicyclo-[4.2.1]-nonane] |  |  | 800 | 27000 |
